Results published in patent US20190105367A1, “ANTIMICROBIAL 4-OXOQUINOLIZINES” (Emergent Product Development Gaithersburg Inc., priority 2011, published 2019).

Assays:
P. aeruginosa ATCC 27853 = test: MIC, selected panel of bacterial strains (Example 5); assay type: cell-based, Pseudomonas aeruginosa
[1] = system: S. aureus BAA-1556 (USA300-Type) (MRSA, FQ-R); test: as above; assay type: cell-based, Staphylococcus aureus; settings: MRSA, FQ-R
A. baumannii ATCC 19606 = test: as above; assay type: cell-based, Acinetobacter baumannii
B. thailandensis E264 = test: microbe, parasite or virus in culture; assay type: cell-based, Burkholderia thailandensis
E. coli ATCC 25922 = test: MIC, selected panel of bacterial strains (Example 5); assay type: cell-based, Escherichia coli
S. aureus ATCC 25923 = test: as above; assay type: cell-based, Staphylococcus aureus
[2] = system: S. aureus ATCC 43300 (MRSA, FQ-S); test: as above; assay type: cell-based, Staphylococcus aureus; settings: MRSA, FQ-S
[3] = system: K. pneumoniae BAA-2146 (NDM-1, FQ-R); test: MIC on K. pneumoniae (Example 5); assay type: cell-based, Klebsiella pneumoniae; settings: quinolone-resistant strain
Method: (§1) MIC Values for all compounds were measured against a selection of bacterial strains. The MICs of 4-oxoquinolizines against a selection of Gram-negative and Gram-positive bacterial strains are shown in Table 13 in comparison with known antibiotics.

K. pneumoniae ATCC 33495 = test: MIC on K. pneumoniae (Example 5); assay type: cell-based, Klebsiella pneumoniae; settings: sensitive strain
Method: as §1

Compound: Cc1c(-c2ccc(CN)cc2)c(F)cn2c(=O)c(C(=O)[O-])cc(C3CC3)c12.[K+] [Compound 6K salt]
- MICs against Gram negative bacteria P. aeruginosa ATCC 27853 (P. aeruginosa ATCC 27853): 4 to 8 µg/mL
- MICs against Gram positive bacteria S. aureus BAA-1556 (USA300-Type) (MRSA, FQ-R) [1]: 1 µg/mL
- MICs against Gram negative bacteria A. baumannii ATCC 19606 (A. baumannii ATCC 19606): 1 µg/mL
- MICs against Gram negative bacteria B. thailandensis E264 (B. thailandensis E264): 4 µg/mL
- MICs against Gram negative bacteria E. coli ATCC 25922 (E. coli ATCC 25922): 0.064 to 0.125 µg/mL
- MICs against Gram positive bacteria S. aureus ATCC 25923 (S. aureus ATCC 25923): 0.125 µg/mL
- MICs against Gram positive bacteria S. aureus ATCC 43300 (MRSA, FQ-S) [2]: 0.064 µg/mL

Compound: Cc1c(-c2ccc3[nH]ncc3c2)ccn2c(=O)c(C(=O)[O-])cc(C3CC3)c12.[K+] [Compound 35K salt, potassium 8-(1H-indazol-5-yl)-1-cyclopropyl-9-methyl-4-oxo-4H-quinolizine-3-carboxylate]
- MICs K. pneumoniae BAA-2146 (NDM-1, FQ-R) [3]: >8 µg/mL
- MICs K. pneumoniae ATCC 33495 (K. pneumoniae ATCC 33495): 0.125 µg/mL
